In ChEMBL document CHEMBL1137682, “Synthesis, characterization and structure-activity relationship analysis of novel depsides as potential antibacterials” (2009) one finds MIC data, which are given here for one compound.

Type in all cases: functional
Experiment [1] concerns Staphylococcus aureus. Nature of the experiment: Antibacterial activity against Staphylococcus aureus ATCC 6538 after 24 hrs by MTT assay. As to conditions: ATCC 6538, 24 h. In general terms: Tetrazolium dyes change colour on reduction, which living cells bring about.
Experiment [2] concerns Enterobacter cloacae. Nature of the experiment: Antibacterial activity against Enterobacter cloacae ATCC 13047 after 24 hrs by MTT assay. As to conditions: ATCC 13047, 24 h.
For experiment [3], the system named is Escherichia coli. The experiment can be described thus: Antibacterial activity against Escherichia coli ATCC 35218 after 24 hrs by MTT assay. The note with it: ATCC 35218, 24 h.
Experiment [4] has as its system Bacillus subtilis. The experiment can be described thus: Antibacterial activity against Bacillus subtilis ATCC 6633 after 24 hrs by MTT assay. The note with it: ATCC 6633, 24 h.
Experiment [5] has as its system Pseudomonas aeruginosa. Nature of the experiment: Antibacterial activity against sPseudomonas aeruginosa ATCC 13525 after 24 hrs by MTT assay. The note with it: ATCC 13525, 24 h.
Experiment [6] concerns Enterococcus faecalis. Nature of the experiment: microbe, parasite or virus in culture. The note with it: ATCC 9790, 24 h.

Values after ≈ are worked out from the molar mass of the structure shown.

Turning to `CCOc1ccc(CC(=O)Oc2ccccc2CC(=O)OC)cc1OCC`, the MIC is 1.56 µg/mL (≈ 4.19 µM) in experiment [1]; 3.12 µg/mL (≈ 8.39 µM) in experiment [2]; 1.56 µg/mL (≈ 4.19 µM) in experiment [3]; more than 50 µg/mL in experiment [4]; 3.12 µg/mL (≈ 8.39 µM) in experiment [5]; 3.12 µg/mL (≈ 8.39 µM) in experiment [6].
